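Protocol summary: plate cells (96-well), add compound at 5 concentrations, incubate 48 h, interpolate endpoints linearly. TGI: total growth inhibition.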
What was measured:
Test in all cases: NCI tumour cell line growth inhibition, 48 h
DMS 114 small cell lung = system: DMS 114 small cell lung
CCRF-CEM leukemia = system: CCRF-CEM leukemia
SNB-75 CNS = system: SNB-75 CNS
UO-31 renal = system: UO-31 renal
UACC-257 melanoma = system: UACC-257 melanoma
A498 renal = system: A498 renal
SK-MEL-28 melanoma = system: SK-MEL-28 melanoma
HCT-116 colon = system: HCT-116 colon
SK-MEL-5 melanoma = system: SK-MEL-5 melanoma
SF-268 CNS = system: SF-268 CNS
LXFL 529 NSCLC = system: LXFL 529 NSCLC
SF-539 CNS = system: SF-539 CNS
HOP-18 NSCLC = system: HOP-18 NSCLC
M14 melanoma = system: M14 melanoma
KM12 colon = system: KM12 colon
SK-MEL-2 melanoma = system: SK-MEL-2 melanoma
HOP-92 NSCLC = system: HOP-92 NSCLC
COLO 205 colon = system: COLO 205 colon
SNB-78 CNS = system: SNB-78 CNS
HCC-2998 colon = system: HCC-2998 colon
K-562 leukemia = system: K-562 leukemia
SR leukemia = system: SR leukemia
IGROV1 ovarian = system: IGROV1 ovarian
TK-10 renal = system: TK-10 renal
HOP-62 NSCLC = system: HOP-62 NSCLC
OVCAR-4 ovarian = system: OVCAR-4 ovarian
LOX IMVI melanoma = system: LOX IMVI melanoma
CAKI-1 renal = system: CAKI-1 renal
KM20L2 colon = system: KM20L2 colon
SN12C renal = system: SN12C renal
NCI-H23 lung = system: NCI-H23 lung
RXF-631 renal = system: RXF-631 renal
OVCAR-8 ovarian = system: OVCAR-8 ovarian
SF-295 CNS = system: SF-295 CNS
DLD-1 colon = system: DLD-1 colon
DMS 273 small cell lung = system: DMS 273 small cell lung
RXF 393 renal = system: RXF 393 renal
NCI-H522 lung = system: NCI-H522 lung
OVCAR-3 ovarian = system: OVCAR-3 ovarian
NCI-H460 lung = system: NCI-H460 lung
MOLT-4 leukemia = system: MOLT-4 leukemia
ACHN renal = system: ACHN renal
786-0 renal = system: 786-0 renal
OVCAR-5 ovarian = system: OVCAR-5 ovarian
M19-MEL melanoma = system: M19-MEL melanoma
SW-620 colon = system: SW-620 colon
NCI-H226 lung = system: NCI-H226 lung
U251 CNS = system: U251 CNS
HT29 colon = system: HT29 colon
A549 NSCLC = system: A549 NSCLC
SK-OV-3 ovarian = system: SK-OV-3 ovarian
RPMI-8226 leukemia = system: RPMI-8226 leukemia
HCT-15 colon = system: HCT-15 colon
UACC-62 melanoma = system: UACC-62 melanoma
MALME-3M melanoma = system: MALME-3M melanoma
HL-60(TB) leukemia = system: HL-60(TB) leukemia
SNB-19 CNS = system: SNB-19 CNS
XF 498 CNS = system: XF 498 CNS
EKVX NSCLC = system: EKVX NSCLC

`COC1=C(OC)CCC(/C(C#N)=C/c2ccc(OC)c(OC)c2)=C1` gave a TGI (DMS 114 small cell lung) of over 100 µM, a TGI (CCRF-CEM leukemia) of over 100 µM and a TGI (SNB-75 CNS) of 43 µM. The TGI (UO-31 renal) was over 100 µM, the TGI (UACC-257 melanoma) was over 100 µM and the TGI (A498 renal) was over 100 µM. For the same compound, the TGI (SK-MEL-28 melanoma) was over 100 µM, the TGI (HCT-116 colon) was over 100 µM and the TGI (SK-MEL-5 melanoma) was over 100 µM. The TGI (SF-268 CNS) was over 100 µM, the TGI (LXFL 529 NSCLC) was over 100 µM and the TGI (SF-539 CNS) was over 100 µM. It also gave a TGI (HOP-18 NSCLC) of over 100 µM, a TGI (M14 melanoma) of over 100 µM and a TGI (KM12 colon) of over 100 µM. The TGI (SK-MEL-2 melanoma) was over 100 µM, the TGI (HOP-92 NSCLC) was over 100 µM and the TGI (COLO 205 colon) was over 100 µM. It also gave a TGI (SNB-78 CNS) of over 100 µM, a TGI (HCC-2998 colon) of over 100 µM and a TGI (K-562 leukemia) of over 100 µM. The TGI (SR leukemia) was over 100 µM, the TGI (IGROV1 ovarian) was over 100 µM and the TGI (TK-10 renal) was 98 µM. The TGI (HOP-62 NSCLC) was 86.9 µM, the TGI (OVCAR-4 ovarian) was over 100 µM and the TGI (LOX IMVI melanoma) was over 100 µM. For the same compound, the TGI (CAKI-1 renal) was over 100 µM, the TGI (KM20L2 colon) was over 100 µM and the TGI (SN12C renal) was over 100 µM. The TGI (NCI-H23 lung) was over 100 µM, the TGI (RXF-631 renal) was over 100 µM and the TGI (OVCAR-8 ovarian) was over 100 µM. The TGI (SF-295 CNS) was over 100 µM, the TGI (DLD-1 colon) was over 100 µM and the TGI (DMS 273 small cell lung) was over 100 µM. The TGI (RXF 393 renal) was 92.9 µM, the TGI (NCI-H522 lung) was 70.5 µM and the TGI (OVCAR-3 ovarian) was over 100 µM. It also gave a TGI (NCI-H460 lung) of over 100 µM, a TGI (MOLT-4 leukemia) of over 100 µM and a TGI (ACHN renal) of over 100 µM. It also gave a TGI (786-0 renal) of over 100 µM, a TGI (OVCAR-5 ovarian) of over 100 µM and a TGI (M19-MEL melanoma) of over 100 µM. For the same compound, the TGI (SW-620 colon) was over 100 µM, the TGI (NCI-H226 lung) was over 100 µM and the TGI (U251 CNS) was over 100 µM. The TGI (HT29 colon) was over 100 µM, the TGI (A549 NSCLC) was over 100 µM and the TGI (SK-OV-3 ovarian) was 91.3 µM. For the same compound, the TGI (RPMI-8226 leukemia) was over 100 µM, the TGI (HCT-15 colon) was over 100 µM and the TGI (UACC-62 melanoma) was over 100 µM.
`COc1ccccc1/C=C\c1cc(OC)c(OC)c(OC)c1` gave a TGI (DMS 114 small cell lung) of over 100 µM, a TGI (CCRF-CEM leukemia) of over 100 µM and a TGI (SNB-75 CNS) of 72.6 µM. The TGI (UO-31 renal) was 60.4 µM, the TGI (UACC-257 melanoma) was over 100 µM and the TGI (A498 renal) was 54.7 µM. It also gave a TGI (SK-MEL-28 melanoma) of over 100 µM, a TGI (HCT-116 colon) of over 100 µM and a TGI (SK-MEL-5 melanoma) of 13.5 µM. It also gave a TGI (LXFL 529 NSCLC) of over 100 µM, a TGI (SF-539 CNS) of 46.4 µM and a TGI (HOP-18 NSCLC) of over 100 µM. The TGI (M14 melanoma) was over 100 µM, the TGI (KM12 colon) was over 100 µM and the TGI (HOP-92 NSCLC) was 81.6 µM. The TGI (COLO 205 colon) was 16.9 µM, the TGI (SNB-78 CNS) was over 100 µM and the TGI (K-562 leukemia) was over 100 µM. It also gave a TGI (IGROV1 ovarian) of over 100 µM, a TGI (TK-10 renal) of over 100 µM and a TGI (HOP-62 NSCLC) of over 100 µM. The TGI (OVCAR-4 ovarian) was over 100 µM, the TGI (MALME-3M melanoma) was over 100 µM and the TGI (LOX IMVI melanoma) was over 100 µM. For the same compound, the TGI (CAKI-1 renal) was over 100 µM, the TGI (SN12C renal) was over 100 µM and the TGI (RXF-631 renal) was over 100 µM. The TGI (OVCAR-8 ovarian) was over 100 µM, the TGI (SF-295 CNS) was over 100 µM and the TGI (DLD-1 colon) was over 100 µM. It also gave a TGI (DMS 273 small cell lung) of over 100 µM, a TGI (RXF 393 renal) of 36.6 µM and a TGI (NCI-H522 lung) of 45.5 µM. The TGI (OVCAR-3 ovarian) was 55.6 µM, the TGI (NCI-H460 lung) was over 100 µM and the TGI (MOLT-4 leukemia) was 98.6 µM. For the same compound, the TGI (ACHN renal) was over 100 µM, the TGI (786-0 renal) was over 100 µM and the TGI (OVCAR-5 ovarian) was 89.4 µM. For the same compound, the TGI (M19-MEL melanoma) was over 100 µM, the TGI (SW-620 colon) was over 100 µM and the TGI (NCI-H226 lung) was 96.2 µM. For the same compound, the TGI (HL-60(TB) leukemia) was 20.1 µM, the TGI (U251 CNS) was over 100 µM and the TGI (SNB-19 CNS) was over 100 µM. It also gave a TGI (HT29 colon) of over 100 µM, a TGI (A549 NSCLC) of over 100 µM and a TGI (XF 498 CNS) of 48 µM. For the same compound, the TGI (RPMI-8226 leukemia) was 43.7 µM, the TGI (HCT-15 colon) was over 100 µM and the TGI (UACC-62 melanoma) was over 100 µM. It also gave a TGI (EKVX NSCLC) of over 100 µM.

Source: PubChem BioAssay (NCI)
